Results on nine compounds are retold here after ChEMBL document CHEMBL1201862, “PubChem BioAssay data set” (2004).

Common to all, as to test: growth of human tumour cells (NCI), 48 h
The test system of assay [1] is CAKI-1.
Assay [2] concerns SR.
Assay [3] deals with DU-145.
The test system of assay [4] is SF-268.
Assay [5] has as its system MDA-MB-435.
Assay [6] relates to MOLT-4.
Assay [7] concerns NCI/ADR-RES.
Assay [8] relates to SF-295.
The subject of assay [9] is SK-MEL-2.
The test system of assay [10] is UACC-257.
The test system of assay [11] is SNB-19.
Assay [12] has as its system NCI-H23.
Assay [13] relates to TK-10.
The subject of assay [14] is SNB-75.
Assay [15] concerns HL-60.
In assay [16] the test system is OVCAR-4.
Assay [17] has as its system CCRF-CEM.
In assay [18] the test system is HCT-15.
The test system of assay [19] is LOX IMVI.
The subject of assay [20] is COLO 205.

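In this assay, cells in 96-well plates receive the compound at five concentrations for 48 hours. Endpoints are linearly interpolated between the surrounding concentrations. GI50: concentration for 50% inhibition of growth.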 Activity calls are given as the source filed them. Rule as the data show it: active = GI50 up to about 1.1 µM and inactive = higher.

`Cc1ccc(SC2=C(N(C)C)C(=O)c3ccccc3C2=O)cc1`: the GI50 in assay [1] is 1.53 µM (inactive); in [2], 0.631 µM (active); in assay [3], 10.7 µM (inactive); in assay [4], 4.76 µM (inactive); in assay [5] it was 0.444 µM (active); in assay [6], 0.82 µM (active). Moreover, the GI50 in assay [7] was 0.847 µM (active); in [8] it was 11.5 µM (inactive); in assay [9] it was 9.73 µM (inactive); in [10] it was 1.91 µM (inactive); in assay [11], 12.3 µM (inactive); in assay [12], 1.82 µM (inactive). The GI50 is 7.43 µM (inactive) in assay [13]; 12.1 µM (inactive) in [14]; 0.38 µM (active) in [15]; 4.06 µM (inactive) in assay [16]; 1.55 µM (inactive) in assay [17]; 2.45 µM in assay [18]. Also, the GI50 in assay [19] is 3.35 µM (inactive); in assay [20], 20.8 µM (inactive).

For `CCOC(=O)C(C#N)C1=CC(=O)C(=O)c2ccc(O)cc21` (stereo not given), the GI50 in assay [1] is > 100 µM (inactive); in [2], > 100 µM (inactive); in assay [3], > 100 µM (inactive); in [4], > 100 µM (inactive); in assay [5], 21.1 µM (inactive); in [6] it was > 100 µM (inactive). Also, the GI50 in [7] was > 100 µM (inactive); in assay [8], 90.6 µM (inactive); in [9], 23.2 µM (inactive); in assay [10] it was 31.9 µM (inactive); in assay [11] it was > 100 µM (inactive); in assay [12] it was 19.3 µM (inactive). Moreover, the GI50 in [13] was > 100 µM (inactive); in assay [14], 51.1 µM (inactive); in assay [15], > 100 µM (inactive); in assay [16], 58.9 µM (inactive); in [17], > 100 µM (inactive); in assay [18], > 100 µM. Besides, the results for the GI50 in assay [19] and in assay [20] were 36.7 µM (inactive) and > 100 µM (inactive), respectively.

Turning to `COc1ccc2c(c1)c1nn(CCN3CCCCC3)c3ccc4c(=O)n(CCN(C)C)c(=O)n2c4c13`, the GI50 in assay [1] was 0.0219 µM (active); in assay [2], < 0.01 µM (active); in assay [3], < 0.01 µM (active); in assay [4], < 0.01 µM (active); in [5], < 0.0109 µM (active); in assay [6], < 0.01 µM (active). The GI50 was < 0.153 µM (active) in assay [7]; < 0.01 µM (active) in assay [8]; 0.04 µM (active) in assay [9]; 0.244 µM (active) in assay [10]; < 0.0138 µM (active) in assay [11]; < 0.022 µM (active) in [12]. The GI50 in assay [13] is 0.029 µM (active); in assay [14], < 0.01 µM (active); in [15], 0.076 µM (active); in assay [16], < 0.01 µM (active); in assay [17], < 0.01 µM (active); in assay [18], < 0.01 µM. Further, the GI50 in [19] was < 0.01 µM (active); in assay [20], 0.148 µM (active).

Regarding `CC(C)=CC(O)C/C(C)=C/CC/C(C)=C/CCC1(C)C(CCCO)/C(=C(/C)C=O)CCC1(C)O` (stereo not given), the GI50 in [1] is 41.9 µM (inactive); in assay [2], 37 µM (inactive); in assay [3], 57 µM (inactive); in [4], 40.5 µM (inactive); in assay [5], 31 µM (inactive); in assay [6], 24.7 µM (inactive). In addition, the GI50 is 65.3 µM (inactive) in assay [7]; 28.8 µM (inactive) in assay [8]; 59.3 µM (inactive) in assay [9]; 31.5 µM (inactive) in assay [10]; 97.7 µM (inactive) in assay [11]; 20 µM (inactive) in assay [12]. Also, the GI50 in [13] is 30.3 µM (inactive); in assay [14] it was > 100 µM (inactive); in assay [15], 23 µM (inactive); in assay [16], 25.5 µM (inactive); in assay [17] it was 30.5 µM (inactive); in assay [18], 46.3 µM. The GI50 is 32.5 µM (inactive) in assay [19] and 32.7 µM (inactive) in assay [20].

Consider `CN(CCCNC(=O)c1cc(-c2ccccc2)nc2ccccc12)CCCNC(=O)c1cc(-c2ccccc2)nc2ccccc12`, for which the GI50 in [1] was 9.16 µM (inactive); in assay [2], 3.36 µM (inactive); in [3] it was 3.58 µM (inactive); in assay [4], 5.32 µM (inactive); in assay [5], 1.76 µM (inactive); in assay [6] it was 2.45 µM (inactive). The GI50 is 2.84 µM (inactive) in assay [7]; 1.77 µM (inactive) in assay [8]; 1.96 µM (inactive) in [9]; 1.78 µM (inactive) in [10]; 5.97 µM (inactive) in [11]; 6.35 µM (inactive) in assay [12]. The GI50 was 4.45 µM (inactive) in assay [13]; 2.33 µM (inactive) in assay [14]; 2.19 µM (inactive) in assay [15]; 3.54 µM (inactive) in assay [16]; 3.73 µM (inactive) in assay [17]; 4 µM in assay [18]. Besides, the GI50 in assay [19] is 1.85 µM (inactive); in assay [20] it was 1.79 µM (inactive).

Take `Nc1cc2c(nnn2C2OC(COCc3ccccc3)C(OCc3ccccc3)C2OCc2ccccc2)c(=O)[nH]1` (stereo not given): the GI50 in assay [1] is > 100 µM (inactive); in assay [2], 11.5 µM (inactive); in assay [3], 35.9 µM (inactive); in [4] it was 29.4 µM (inactive); in assay [5], 10.9 µM (inactive); in assay [6] it was 7.85 µM (inactive). Further, the GI50 in [7] was > 100 µM (inactive); in [8] it was 17.7 µM (inactive); in [9], 10.5 µM (inactive); in assay [10], 14.9 µM (inactive); in assay [11], 22.8 µM (inactive); in [12], 19.5 µM (inactive). Besides, the GI50 was 10 µM (inactive) in [13]; 25.8 µM (inactive) in assay [14]; 5.47 µM (inactive) in assay [15]; 12.5 µM (inactive) in [16]; 10.3 µM (inactive) in [17]; 40.3 µM in assay [18]. The GI50 in assay [19] is 14.1 µM (inactive); in [20], 7.33 µM (inactive).

As to `COC1/C=C\C=C(/C)C(=O)NC2=CC(=O)C(N)=C(CC(C)CC(OC)C(O)C(C)C=C(C)C1OC(N)=O)C2=O` (stereo not given), the GI50 in assay [1] is 0.977 µM (active); in assay [2], 0.0161 µM (active); in [3] it was < 0.0199 µM (active); in assay [4] it was 0.419 µM (active); in [5] it was < 0.0191 µM (active); in [6], 0.15 µM (active). Further, the GI50 in assay [7] is 28.7 µM (inactive); in [8], 0.0295 µM (active); in [9] it was < 0.01 µM (active); in assay [10], 0.03 µM (active); in assay [11], 0.0424 µM (active); in [12], < 0.0212 µM (active). Moreover, the GI50 was 0.321 µM (active) in assay [13]; < 0.0137 µM (active) in assay [14]; 0.0585 µM (active) in assay [15]; 4.07 µM (inactive) in assay [16]; 0.178 µM (active) in assay [17]; 0.333 µM in [18]. Also, the values for the GI50 in [19] and in assay [20] were 0.0193 µM (active) and < 0.01 µM (active), respectively.

For `CC[C@@]1(O)C(=O)OCc2c1cc1n(c2=O)Cc2c-1nc1ccccc1c2/C=N/NC(=O)c1ccc(N)cc1`, the GI50 in assay [1] is 0.0589 µM (active); in assay [2] it was < 0.01 µM (active); in [3] it was 0.0383 µM (active); in assay [4], < 0.01 µM (active); in [5], 0.197 µM (active); in assay [6], 0.0111 µM (active). Moreover, the GI50 was 0.392 µM (active) in assay [7]; 0.123 µM (active) in assay [8]; 5.37 µM (inactive) in assay [9]; 6.44 µM (inactive) in assay [10]; 0.0175 µM (active) in assay [11]; 0.0798 µM (active) in assay [12]. Further, the GI50 was 15.6 µM (inactive) in [13]; 0.0489 µM (active) in [14]; 0.0327 µM (active) in assay [15]; 3.73 µM (inactive) in assay [16]; < 0.01 µM (active) in assay [17]; 2.95 µM in assay [18]. The GI50 in assay [19] was 0.0273 µM (active); in assay [20], 4.53 µM (inactive).

`COC(=O)C1=C(C)NC(C)=C(C(=O)OC)C1c1nc2sccn2c1[N+](=O)[O-]`: the GI50 in assay [1], in assay [2], in assay [3], in assay [4], in assay [5] and in assay [6] was > 100 µM (inactive) each time. Besides, the GI50 in [7], in assay [8], in assay [9], in [10], in assay [11] and in assay [12] was > 100 µM (inactive) throughout. The GI50 in [13] is > 100 µM (inactive); in assay [14] it was > 100 µM (inactive); in assay [15] it was > 100 µM (inactive); in [16], > 100 µM (inactive); in [17], > 100 µM (inactive); in assay [18], > 100 µM. For the same compound, the GI50 in assay [19] and in assay [20] was > 100 µM (inactive) in each case.
